US20130157258A1, “HCV NS5B PROTEASE MUTANTS” (VERTEX PHARMACEUTICALS INCORPORATED, priority 2010, published 2013)
pIC50: −log10 of the molar value. Entries after “also recorded” stand apart in the source; their conditions may differ.

What was measured:
[1] = tested on: HCV genotype 1; test: Phase Ib/IIa multicenter, randomized, dose-ascending study, 3 days of dosing; assay type: in vivo, human
Procedure: VX-222 is a non-nucleoside hepatitis C virus (HCV) NS5B polymerase inhibitor with potent in vitro activity. Safety, antiviral activity, and viral sequences were assessed in a phase Ib/IIa multicenter, randomized, dose-ascending study in genotype 1, HCV-infected patients.
(§1) Treatment-naïve HCV genotype 1 patients (n=32) were randomized to receive VX-222 at doses of 250 mg BID, 500 mg BID, 750 mg BID, or 1500 mg QD for 3 days, in a treatment:placebo ratio of 6:2 (8 patients/cohort). Pegylated interferon (Peg-IFN) and ribavirin (RBV) for 48 weeks was offered to patients at the end of the study. Sequencing of NS5B was performed at baseline (Day 1), end of dosing (Day 3), and at follow-up timepoints (Days 4, 5, 10, 20, and 60). Phenotypic data (fold change in IC50 from wildtype) of substitutions selected in patients during dosing was determined using a replicon system.

[2] = tested on: HCV NS5B variants (L419C/M/P/S/V, R422K, M423I/T/V, I482L/N/T, A486I/V, V494A); test: Phenotypic analysis of substitutions selected in patients during dosing, replicon system; assay type: cell-based
Procedure: as §1

[3] = tested on: HCV NS5B substitution at position 494 (V494A); test: Phenotypic analysis in replicon system, substitution at position 494; assay type: cell-based
Procedure: as §1

[4] = tested on: HCV NS5B substitution at position 423 (M423I/T/V); test: Phenotypic analysis in replicon system, substitution at position 423; assay type: cell-based
Procedure: as §1

[5] = tested on: HCV NS5B substitution at position 482 (I482L/N/T); test: Phenotypic analysis in replicon system, substitution at position 482; assay type: cell-based
Procedure: as §1

[6] = tested on: HCV NS5B substitution at position 419 (L419C/M/P/S/V); test: Phenotypic analysis in replicon system, substitution at position 419; assay type: cell-based
Procedure: as §1

[7] = tested on: HCV NS5B substitution at position 486 (A486I/V); test: Phenotypic analysis in replicon system, substitution at position 486; assay type: cell-based
Procedure: as §1

[8] = tested on: HCV NS5B substitution at position 422 (R422K); test: Phenotypic analysis in replicon system, substitution at position 422; assay type: cell-based
Procedure: as §1

[9] = tested on: L419M HCV replicon; test: HCV replicon cell assay, real-time PCR, L419M; assay type: cell-based, HCV genotype 1b
From the text: (§2) All mutations were introduced into the pFKI389/NS3-3′/adapt vector (Krieger et al., J. Virol., 75, 4614-4624 (2001); Lohmann et al., J. Virol., 77, 3007-3019 (2003)) by PCR-based site-directed mutagenesis and standard recombinant DNA technologies. The pFKI389/NS3-3′/adapt vector is a “cell culture adapted HCV replicon” containing a R465G mutation within the NS5B gene, and was obtained from Reblikon GmbH, Gau-Odernheim, Germany. The “cell culture adapted replicon” was chosen instead of the wild-type replicon because the R465G mutation was found in all of the progeny RNA isolated from 9.13 replicon cells used in drug susceptibility studies to compare the fold shift in IC50s (described further below). The adaptive R465G mutation in the NS5B region was previously reported (Krieger et al., supra) and found to be very efficient in generating replicon cell colonies after RNA transfection into Huh-7 cells. […]
(§3) The 9.13 replicon cells and the stable recombinant replicon cells were seeded in a 12-well culture dish at a density of 3×10^4 cells/well in a volume of 1 mL. […] The inhibitory effect of agents against wild-type replicon cells, resistant colonies, or recombinant replicon cells was determined by monitoring the levels of HCV RNA, normalized to cellular 18S ribosomal RNA, by real time PCR using the ABI PRISM® 7700 Sequence Detection System (Applied Biosystems, Foster City, Calif., USA). […]

[10] = tested on: L419S HCV replicon; test: HCV replicon cell assay, real-time PCR, L419S resistant colony; assay type: cell-based; details: Hepatitis C virus, 96 h
Procedure: The 9.13 replicon cells and the stable recombinant replicon cells were seeded in a 12-well culture dish at a density of 3×10^4 cells/well in a volume of 1 mL. The cell culture media used for the assay was DMEM supplemented with 10% fetal bovine serum, 100 IU/mL of penicillin, 100 μg/mL streptomycin, non-essential amino acids, 2 mM glutamine and 10 mM HEPES. After incubating for 3-4 hours, candidate agents (drugs) were added at various concentrations for a final volume of 2 mL of the same culture media. Cells were incubated for 4 days at 37° C. with 5% CO2. Thereafter, total RNA (cellular and viral origin) was extracted using the RNeasy kit (Qiagen Inc.) according to the manufacturer's protocol. cDNA synthesis was performed using the MMLV reverse transcriptase and random hexamer primer (Invitrogen). The inhibitory effect of agents against wild-type replicon cells, resistant colonies, or recombinant replicon cells was determined by monitoring the levels of HCV RNA, normalized to cellular 18S ribosomal RNA, by real time PCR using the ABI PRISM® 7700 Sequence Detection System (Applied Biosystems, Foster City, Calif., USA). […]
(§4) Media and drugs were replaced twice a week over the course of the experiment. Three to four weeks following the initial plating, resistant clones of cells (colonies) were counted and randomly picked for culture or for direct RNA extraction. […]

[11] = tested on: M423T HCV replicon; test: HCV replicon cell assay, real-time PCR, M423T; assay type: cell-based, HCV genotype 1b
From the text: as §2, §3

[12] = tested on: M423V HCV replicon; test: HCV replicon cell assay, real-time PCR, M423V; assay type: cell-based, HCV genotype 1b
From the text: as §2, §3

[13] = tested on: M423I HCV replicon; test: HCV replicon cell assay, real-time PCR, M423I; assay type: cell-based, HCV genotype 1b
From the text: as §2, §3

[14] = tested on: I482L HCV replicon; test: HCV replicon cell assay, real-time PCR, I482L; assay type: cell-based, HCV genotype 1b
From the text: as §2, §3

[15] = tested on: A486V HCV replicon; test: HCV replicon cell assay, real-time PCR, A486V; assay type: cell-based, HCV genotype 1b
From the text: as §2, §3

[16] = tested on: V494A HCV replicon; test: HCV replicon cell assay, real-time PCR, V494A; assay type: cell-based, HCV genotype 1b
From the text: as §2, §3

[17] = tested on: recombinant mutant replicons (L419M, M423V, M423T, M423I, I482L, A486V, V494A); test: HCV replicon cell assay, real-time PCR, all seven recombinant mutant replicons; assay type: cell-based, HCV genotype 1b
From the text: as §2, §3

[18] = tested on: genotype 1b replicon cells (9.13 replicon cells); test: Selection of drug-resistant HCV replicon colonies under G418; assay type: cell-based, HCV genotype 1b
From the text: Drug-resistant HCV replicons were selected as previously described. (See, e.g., Amparo et al., 46th Conference on Antimicrobial Agents and Chemotherapy (ICAAC). 2006, Abstract 1273; Le Pogam et al., J. Virol., 80(12), 6146-54 (2006); Lin et al., J. Biol. Chem., 279(17), 17508-17514 (2004); Lu et al., Antimicrob. Agents Chemother., 48(6), 2260-2266 (2004); Trozzi et al., J. Virol., 77, 3669-3679 (2003)). Briefly, approximately 2.5×10^4 genotype 1a replicon cells (W11.8 replicon cells at passage 13) or genotype 1b replicon cells (9.13 replicon cells at passage greater than 100) were plated in 75 cm^2 cell culture flasks (Falcon 353136) in complete culture medium with high concentration of G418 (600 μg/mL). […]
as §4
Mutant replicons resistant to specific inhibitors were made using replicon constructs expressing the neomycin phosphotransferase gene (NPT). […] Cells containing mutant replicons with decreased sensitivity to an inhibitor give rise to colonies that can be counted, isolated, expanded and characterized.

[19] = 250-750 mg BID or 1500 mg QD for 3 days, patients
[20] = Hepatitis C virus, 96 h, 4 days, HCV RNA by real time PCR

## CC1CCC(C(=O)N(c2cc(C#CC(C)(C)C)sc2C(=O)O)C2CCC(O)CC2)CC1 (stereo not drawn) [VX-222]
[1]; 250 mg (BID), after three days of dosing, treatment-naive genotype 1 patients
  mean HCV RNA decline: 3.1 log 10
[1]; 500 mg (BID), after three days of dosing, treatment-naive genotype 1 patients
  mean HCV RNA decline: 3.4 log 10
[1]; 750 mg (BID), after three days of dosing, treatment-naive genotype 1 patients
  mean HCV RNA decline: 3.2 log 10
[1]; 1500 mg (QD), after three days of dosing, treatment-naive genotype 1 patients
  mean HCV RNA decline: 3.4 log 10
[1]; [19]
  most common reported adverse effects (AEs): diarrhea, headache, nausea, fatigue and fever
  severity of the majority of AEs: mild in severity
[1]; all four dose groups
  mean HCV RNA decline: greater than 3 log 10
[2]; range over all variants selected in patients
  fold change in IC50 from wildtype: 6-80 fold
[3]
  fold change in IC50 from wildtype: six
[4]
  fold change in IC50 from wildtype: seven to ten
[5]
  fold change in IC50 from wildtype: ~26 fold
[6]
  fold change in IC50 from wildtype: 20-80 fold
[7]
  fold change in IC50 from wildtype: ~50 fold
[8]
  fold change in IC50 from wildtype: ~74 fold
[9]
  IC50 Fold-Change vs Wild-Type Replicon: 80 fold and ≈80 fold
[9]; [20]
  pIC50: 6.05
[10]
  pIC50: < 5.70
[11]
  IC50 Fold-Change vs Wild-Type Replicon: 29 fold and ≈29 fold
[11]; [20]
  pIC50: 6.50
[12]
  IC50 Fold-Change vs Wild-Type Replicon: 10 fold and ≈10 fold
[12]; [20]
  pIC50: 6.96
[13]
  IC50 Fold-Change vs Wild-Type Replicon: 7.1 fold and ≈7.1 fold
[13]; [20]
  pIC50: 7.11
[14]
  IC50 Fold-Change vs Wild-Type Replicon: ≈26 fold
[14]; [20]
  pIC50: 6.54
[15]
  IC50 Fold-Change vs Wild-Type Replicon: 50 fold and ≈50 fold
[15]; [20]
  pIC50: 6.07
[16]
  IC50 Fold-Change vs Wild-Type Replicon: ≈5.9 fold
[16]; [20]
  pIC50: 6.88
[17]
  fold increase of IC50 vs wild-type replicon cells: 6- to 80 fold
[18]; VX-222 concentration of about 300 fold of the IC50, G418 selection
  resistant colony formation: No colony could be readily detected
[18]; equivalent IC50-fold concentration of VX-222, genotype 1b vs genotype 1a replicon cell line, not side by side
  frequency of resistant clones: higher for the genotype 1b replicon cell line than for the genotype 1a replicon cell line

## NC(=O)c1ncn([C@@H]2O[C@H](CO)[C@@H](O)[C@H]2O)n1 [RBV, ribavirin]
[2]; in vitro
  sensitivity of VX-222-selected variants to the agent: did not have reduced sensitivity; also recorded: remained sensitive
